Measurements published in patent US12479827B2, “Heteroaromatic carboxamide derivatives as plasma kallikrein inhibitors” (Boehringer Ingelheim International GmbH, priority 2020, dated 2025).
pIC50: −log10 of the molar value.

What was measured:
[1] = biological target: T1, Human PKK (Homo sapiens, UniProt P03952); experiment: Inhibition of PKK using an endpoint assay (human PKK); assay type: biochemical; conditions: fluorogenic substrate H-Pro-Phe-Arg-AMC, 1 h room temperature, method names human or rat PKK, table does not say which
T1 construct: purchased Enzyme Research Laboratories
Procedure, shortened: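 Endpoint fluorescence (ex 355 nm, em 460 nm) after stopping with 1 μM final PPACK II. Buffer: Tris 100 mM pH 7.8, NaCl 150 mM, BSA 0.1%, Tween20 0.05%, with 1% DMSO present; enzyme is human plasma kallikrein.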

[2] = biological target: T2, PKK in kaolin activated human platelet poor plasma (Homo sapiens, UniProt P03952); experiment: Inhibition of PKK in kaolin activated human PPP; assay type: biochemical; conditions: 25-750 μg/mL kaolin, global fit, text b200 calls the values IC90;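 further: readout is the rate of fluorogenic substrate cleavage in rfu per min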
T2 construct: Platelet poor plasma (PPP) obtained from human wholeblood; from tissue
Procedure: Platelet poor plasma (PPP) obtained from human wholeblood, anticoagulated with Na-Citrate, is incubated with various concentrations of the test compound together with either 25, 75, 250, or 750 μg/mL kaolin in assay buffer for 20 min at 37° C. such that for each kaolin dose used a concentration response is obtained for the test compound.

T2 sequence (P03952 391-638 limits assumed): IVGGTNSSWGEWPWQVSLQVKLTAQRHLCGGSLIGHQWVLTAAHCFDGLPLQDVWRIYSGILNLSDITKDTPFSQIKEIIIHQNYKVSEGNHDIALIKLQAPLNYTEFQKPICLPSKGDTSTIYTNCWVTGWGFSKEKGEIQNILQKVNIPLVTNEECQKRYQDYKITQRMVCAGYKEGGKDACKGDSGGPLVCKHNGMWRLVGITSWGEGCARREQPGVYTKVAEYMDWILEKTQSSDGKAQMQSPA
T2 sequence (P03952 20-390 limits assumed): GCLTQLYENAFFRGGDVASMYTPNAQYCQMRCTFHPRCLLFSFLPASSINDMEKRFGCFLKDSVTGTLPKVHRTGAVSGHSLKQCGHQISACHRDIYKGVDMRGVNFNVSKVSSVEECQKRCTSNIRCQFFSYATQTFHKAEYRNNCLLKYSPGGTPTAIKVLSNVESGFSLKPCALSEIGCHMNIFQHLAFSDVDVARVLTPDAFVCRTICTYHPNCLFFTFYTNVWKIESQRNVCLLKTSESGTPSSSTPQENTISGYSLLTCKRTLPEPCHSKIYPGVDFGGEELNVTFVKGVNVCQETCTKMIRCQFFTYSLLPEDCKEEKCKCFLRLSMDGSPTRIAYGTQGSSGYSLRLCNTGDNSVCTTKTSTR
T1 sequence (P03952 20-390 limits assumed): as above
T1 sequence (P03952 391-638 limits assumed): as the sequence (P03952 391-638 limits assumed) above

Row | SMILES | pIC50 [1] | pIC50 [2]
1 | Cn1cnc2c1CC[C@H]2NC(=O)c1cn(Cc2ccc(N3CC4CC4C3)cc2Br)cn1 (stereo partly drawn) [Example 204, 1-[(4-{3-azabicyclo[3.1.0]hexan-3-yl}-2-bromophenyl)methyl]-N-[(4R)-1-methyl-1H,4H,5H,6H-cyclopenta[d]imidazol-4-yl]-1H-imidazole-4-carboxamide] | 8.82 | 6.09
2 | Cn1cnc2c1CC[C@H]2NC(=O)c1cn(Cc2ccc(N3CC4CC4C3)cc2CO)cn1 (stereo partly drawn) [Example 207, 1-[(4-{3-azabicyclo[3.1.0]hexan-3-yl}-2-(hydroxymethyl)phenyl)methyl]-N-[(4R)-1-methyl-1H,4H,5H,6H-cyclopenta[d]imidazol-4-yl]-1H-imidazole-4-carboxamide] | 8.49 | 6.13
3 | Cn1cnc2c1CC[C@H]2NC(=O)c1cnn(Cc2ccc(N3CC4C(C3)C4(F)F)cc2C#N)c1 (stereo partly drawn) [Example 208, 1-[(2-cyano-4-{6,6-difluoro-3-azabicyclo-[3.1.0]hexan-3-yl}phenyl)methyl]-N-[(4R)-1-methyl-1H,4H,5H,6H-cyclopenta[d]imidazol-4-yl]-1H-pyrazole-4-carboxamide] | 9.22 | 7.10
4 | Cn1cnc2c1CC[C@H]2NC(=O)c1cnn(Cc2ccc(N3CC4C(C3)C4(F)F)cc2Br)c1 (stereo partly drawn) [Example 209, 1-[(2-bromo-4-{6,6-difluoro-3-azabicyclo-[3.1.0]hexan-3-yl}phenyl)methyl]-N-[(4R)-1-methyl-1H,4H,5H,6H-cyclopenta[d]imidazol-4-yl]-1H-pyrazole-4-carboxamide] | 8.82 | 6.36
5 | Cn1cnc2c1CC[C@H]2NC(=O)c1cn(Cc2ccc(N3CC4C(C3)C4(F)F)cc2C#N)cn1 (stereo partly drawn) [Example 210, 1-[(2-cyano-4-{6,6-difluoro-3-azabicyclo-[3.1.0]hexan-3-yl}phenyl)methyl]-N-[(4R)-1-methyl-1H,4H,5H,6H-cyclopenta[d]imidazol-4-yl]-1H-imidazole-4-carboxamide] | 9.40 | 6.89
6 | Cn1cnc2c1CC[C@H]2NC(=O)c1cn(Cc2ccc(N3CC4C(C3)C4(F)F)cc2Cl)cn1 (stereo partly drawn) [Example 211, 1-[(2-chloro-4-{6,6-difluoro-3-azabicyclo-[3.1.0]hexan-3-yl}phenyl)methyl]-N-[(4R)-1-methyl-1H,4H,5H,6H-cyclopenta[d]imidazol-4-yl]-1H-imidazole-4-carboxamide] | 9.10 | 6.23

Now from value to compound:

Row | pIC50 [1] | pIC50 [2] | SMILES
7 | 9.22 | 6.89 | Cn1cnc2c1CC[C@H]2NC(=O)c1cn(Cc2ccc(N3CC4CC4C3)c(C#N)c2F)cn1 (stereo partly drawn) [Example 201, 1-[(4-{3-azabicyclo[3.1.0]hexan-3-yl}-3-cyano-2-fluorophenyl)methyl]-N-[(4R)-1-methyl-1H,4H,5H,6H-cyclopenta[d]imidazol-4-yl]-1H-imidazole-4-carboxamide]
8 | 9.30 | 6.80 | Cn1cnc2c1CC[C@H]2NC(=O)c1cnn(Cc2ccc(N3CC4CC4C3)c(C#N)c2Cl)c1 (stereo partly drawn) [Example 202, 1-[(4-{3-azabicyclo[3.1.0]hexan-3-yl}-2-chloro-3-cyanophenyl)methyl]-N-[(4R)-1-methyl-1H,4H,5H,6H-cyclopenta[d]imidazol-4-yl]-1H-pyrazole-4-carboxamide]
9 | 9.15 | 6.69 | Cn1cnc2c1CC[C@H]2NC(=O)c1cn(Cc2ccc(N3CC4CC4C3)c(C#N)c2Cl)cn1 (stereo partly drawn) [Example 203, 1-[(4-{3-azabicyclo[3.1.0]hexan-3-yl}-2-chloro-3-cyanophenyl)methyl]-N-[(4R)-1-methyl-1H,4H,5H,6H-cyclopenta[d]imidazol-4-yl]-1H-imidazole-4-carboxamide]
10 | 9.40 | 6.86 | Cn1cnc2c1CC[C@H]2NC(=O)c1cn(Cc2ccc(N3CC4CC4C3)cc2C#N)cn1 (stereo partly drawn) [Example 206, 1-[(4-{3-azabicyclo[3.1.0]hexan-3-yl}-2-cyanophenyl)methyl]-N-[(4R)-1-methyl-1H,4H,5H,6H-cyclopenta[d]imidazol-4-yl]-1H-imidazole-4-carboxamide]
